Assay results reported in paper PMC2826142 (Journal of medicinal chemistry, 2010).
“Also recorded” adds a separate entry of the source.

Key:
[1] = molecular target: T1, human adenosine A2A receptor (Homo sapiens, UniProt P29274); assay: Functional cAMP accumulation assay; format: cell-based; details: 10 µM compound, 10 nM or 10 µM 3a
[2] = molecular target: T2, human adenosine A1 receptor (Homo sapiens, UniProt P30542); assay: Radioligand; format: binding; details: for inhibition at 10 µM: read-out: Max Displacement A1AR-CHO membranes
T2 sequence (P30542 1-326): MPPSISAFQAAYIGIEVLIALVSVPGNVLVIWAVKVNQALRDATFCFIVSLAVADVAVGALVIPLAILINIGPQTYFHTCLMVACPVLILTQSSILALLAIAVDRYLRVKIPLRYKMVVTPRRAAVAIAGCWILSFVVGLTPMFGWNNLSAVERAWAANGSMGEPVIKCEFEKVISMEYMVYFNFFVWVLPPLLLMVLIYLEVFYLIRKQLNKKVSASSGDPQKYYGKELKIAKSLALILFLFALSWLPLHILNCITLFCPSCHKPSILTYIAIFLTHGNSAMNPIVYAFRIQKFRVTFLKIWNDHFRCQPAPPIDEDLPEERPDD

[3] = test system: forskolin stimulated cAMP generation; assay: Forskolin stimulated cAMP generation; format: cell-based; details: data not shown
[4] = molecular target: T1, human adenosine A2A receptor; assay: Radioligand displacement at A2AAR-HEK membranes; format: binding; details: for Max Displacement at A2AAR-HEK membranes: 10 µM of test compound; for A2A / A1 selectivity: mammalian membranes, A2AAR over A1AR
[5] = Visible sedimentation in binding assay; details: binding assay buffer
[6] = molecular target: human A2AAR receptor (Homo sapiens, UniProt P29274); assay: Competition binding with tritiated compound 1; details: for LE (experimental ligand efficiency): ligand binding energy per heavy atom, from Sf9 Ki
Sequence of human A2AAR receptor (P29274 whole entry): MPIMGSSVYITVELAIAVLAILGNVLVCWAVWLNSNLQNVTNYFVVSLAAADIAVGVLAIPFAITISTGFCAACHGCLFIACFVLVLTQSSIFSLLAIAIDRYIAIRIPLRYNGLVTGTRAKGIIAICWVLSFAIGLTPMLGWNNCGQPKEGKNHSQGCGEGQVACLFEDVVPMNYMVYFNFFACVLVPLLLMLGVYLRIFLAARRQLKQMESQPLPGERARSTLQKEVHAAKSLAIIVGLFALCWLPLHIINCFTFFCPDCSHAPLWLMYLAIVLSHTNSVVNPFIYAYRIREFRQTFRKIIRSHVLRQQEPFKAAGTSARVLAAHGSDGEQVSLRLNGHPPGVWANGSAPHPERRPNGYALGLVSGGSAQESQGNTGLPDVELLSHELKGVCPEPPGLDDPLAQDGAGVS

T1 sequence (P29274 whole entry): as above

SMILES	Ki [2] [nM]	inhibition at 10 µM [2] [%]	Ki [4] [nM]	Max Displacement at A2AAR-HEK membranes [4] [%]	A2A / A1 selectivity [4] [fold]	A2AAR affinity (in words) ([6]; Sf9 membranes)	further results
Nc1c(C(=O)Nc2ccccc2F)sc2nc3c(cc12)C(=O)CCC3 [compound 6]	90	32	60	48	1.42	–	A2AAR antagonist functional activity (in words) [1]: the effect does not depend on agonist concentration; effect on forskolin stimulated cAMP generation [3]: inhibited
N#Cc1c(N)nc2c(oc3ccccc32)c1-c1ccccc1 [compound 15]	480	27	560	73	0.87	–	–
COc1ccc(Cl)cc1Nc1nc(N)nc(-c2oc3ccccc3c2C)n1 [compound 9]	1440	41	490	41	2.94	–	concentration with visible sedimentation of the compound [5]: above 10 µM; A2AAR antagonist functional activity (in words) [1]: one of the highest among the tested ligands; Ki [6]: 30 nM; displacement of the hot ligand ([6]; Sf9 membranes, at 2 µM): up to 80%
COc1ccc(N)c2c1C(=O)c1ccccc1C2=O [compound 26]	260	100	100	100	2.74	sub-µM affinity	–
Nc1ccc(-c2nc3c(N)cccc3[nH]2)cc1 [compound 57]	–	–	–	–	–	–	LE (experimental ligand efficiency) [6]: 0.32 kcal/mol per heavy atom
Nc1ccc(N)c2c1C(=O)c1ccccc1C2=O [compound 29]	280	100	110	100	2.51	sub-µM affinity	–
N#Cc1c(N)nc2c(C(N)=O)c(Nc3ccccc3)sc2c1-c1ccccc1 [compound 8]	60	100	1140	53	0.05	–	A2AAR antagonist functional activity (in words) [1]: No A2AAR specific activity; also recorded: does not have any functional activity
CN1CCc2sc3nc(C(=O)Nc4ccc(F)cc4)c(N)cc3c2C1 [compound 7]	–	–	–	–	–	–	Ki [6]: 1900 nM
Nc1c(C(=O)c2ccccc2)oc2ccc(Br)cc12 [compound 16]	–	–	–	–	–	modest affinity	LE (experimental ligand efficiency) [6]: 0.38 kcal/mol per heavy atom
Nc1cccc2c1C(=O)c1ccccc1C2=O [compound 28]	–	–	–	–	–	low-µM affinity	–
Cn1c(=O)cc2c3c(c(N)ccc31)C(=O)c1ccccc1-2 [compound 35]	150	100	200	100	0.75	sub-µM affinity	–
Nc1c(C(=O)Nc2nccs2)sc2nc3c(cc12)C(=O)CCC3 [compound 14]	140	25	60	54	2.24	–	–
Cc1ccc(N2C(=O)c3cccc(N)c3C2=O)cc1 [compound 21]	390	86	–	57	0.13	modest	–
CC(=O)Oc1cccc(-c2nc(C(N)=O)c(N)o2)c1 [compound 46]	–	–	–	–	–	modest affinity	LE (experimental ligand efficiency) [6]: 0.32 kcal/mol per heavy atom
Cc1cccc(NC2=C(N)C(=O)c3ccccc3C2=O)c1 [compound 50]	1750	27	150	50	–	–	A2AAR antagonist functional activity (in words) [1]: significant activity; LE (experimental ligand efficiency) [6]: ~ 0.4 kcal/mol per heavy atom
CN1CCc2nc3sc(C(=O)Nc4ccc(Cl)cc4)c(N)c3cc2C1 [compound 10]	1120	28	> 10000	–	–	–	binding to the HEK293 expressed A2AAR protein (in words) ([4]; HEK293 membranes): did not show any substantial binding
NC1=C(Nc2cccc(C(F)(F)F)c2)C(=O)c2ccccc2C1=O [compound 17]	> 10000	–	720	73	>10.	–	A2AAR antagonist functional activity (in words) [1]: significant activity; LE (experimental ligand efficiency) [6]: ~ 0.4 kcal/mol per heavy atom
Nc1c(Sc2ccccc2)cc(Sc2ccccc2)c2c1C(=O)c1ccccc1C2=O [compound 38]	–	–	–	–	–	low-µM affinity	–
Nc1ccc(Cl)c2c1C(=O)c1ccccc1C2=O [compound 49]	190	100	940	–	–	sub-µM affinity	–
Nc1c(Oc2ccccc2)ccc2c1C(=O)c1ccccc1C2=O [compound 20]	–	–	–	–	–	low-µM affinity	–
